Values quoted from earlier work, collected in patent publication US8409610B2, “Wound care device” (Coloplast A/S, priority 2003, dated 2013).

conditions: reported values, given as examples

minimum plasma concentration for obtaining systemic effect	Structure (SMILES)
270 µg/mL	CC(=O)Oc1ccccc1C(=O)O [Acetylsalicylic acid]
3 µg/mL	CC(C(=O)O)c1cccc(C(=O)c2ccccc2)c1 (stereo not shown) [Ketoprofen]
10 µg/mL	CC(C)Cc1ccc(C(C)C(=O)O)cc1 (stereo not shown) [Ibuprofen]
1 µg/mL	CN1C(C(=O)Nc2ccccn2)=C(O)c2ccccc2S1(=O)=O [Piroxicam]
